These results are taken from PMC3639963, “A New Class of Small Molecule Inhibitor of BMP Signaling” (PLoS ONE, 2013).

Each structure is given as a SMILES string.

Common to all, as to test: DSF thermal shift
Type in all cases: binding
What all share (settings): 10 µM inhibitor; read-out: Tm shift

One test has as its target T1, AMPKα2 (Homo sapiens, UniProt P54646).
T1 construct: purchased Nanosyn (enzymatic panel); SGC in-house recombinant human kinases (DSF panel); Invitrogen (ALK1-6)
As for the experimental part: (§1) Thermal melting experiments were performed using a Real Time PCR machine Mx3005p (Stratagene) with a protein concentration of 1–2 µM and 10 µM inhibitor as described previously, [25]. […] Recombinant human kinases for DSF screening were prepared by SGC using published methods, [36].

In a further test the target is T2, CDK2 (Homo sapiens, UniProt P24941).
T2 construct: purchased Nanosyn (enzymatic panel); SGC in-house recombinant human kinases (DSF panel); Invitrogen (ALK1-6)
The procedure:
as §1

The target in the next test is T3, CHEK2 (Homo sapiens, UniProt O96017).
T3 construct: purchased Nanosyn (enzymatic panel); SGC in-house recombinant human kinases (DSF panel); Invitrogen (ALK1-6)
As for the experimental part: as §1

For a further test, the target named is T4, CK1γ1 (Homo sapiens, UniProt Q9HCP0).
T4 construct: purchased Nanosyn (enzymatic panel); SGC in-house recombinant human kinases (DSF panel); Invitrogen (ALK1-6)
As for the experimental part:
as §1

In the next test the target is T5, CLK2 (Homo sapiens, UniProt P49760).
T5 construct: purchased Nanosyn (enzymatic panel); SGC in-house recombinant human kinases (DSF panel); Invitrogen (ALK1-6)
As for the experimental part:
as §1

Another test addresses T6, CLK3 (Homo sapiens, UniProt P49761).
T6 construct: purchased Nanosyn (enzymatic panel); SGC in-house recombinant human kinases (DSF panel); Invitrogen (ALK1-6)
The procedure: as §1

In the next test the target is T7, CLK4 (Homo sapiens, UniProt Q9HAZ1).
T7 construct: purchased Nanosyn (enzymatic panel); SGC in-house recombinant human kinases (DSF panel); Invitrogen (ALK1-6)
As for the experimental part: as §1

A further test has as its target T8, ERK1 (Homo sapiens, UniProt P27361).
T8 construct: purchased Nanosyn (enzymatic panel); SGC in-house recombinant human kinases (DSF panel); Invitrogen (ALK1-6)
The procedure: as §1

The target of the next test is T9, FES (Homo sapiens, UniProt P07332).
T9 construct: purchased Nanosyn (enzymatic panel); SGC in-house recombinant human kinases (DSF panel); Invitrogen (ALK1-6)
As for the experimental part:
as §1

For another test, the target named is T10, GRK1 (Homo sapiens, UniProt Q15835).
T10 construct: purchased Nanosyn (enzymatic panel); SGC in-house recombinant human kinases (DSF panel); Invitrogen (ALK1-6)
T10 sequence (Q15835 1-563): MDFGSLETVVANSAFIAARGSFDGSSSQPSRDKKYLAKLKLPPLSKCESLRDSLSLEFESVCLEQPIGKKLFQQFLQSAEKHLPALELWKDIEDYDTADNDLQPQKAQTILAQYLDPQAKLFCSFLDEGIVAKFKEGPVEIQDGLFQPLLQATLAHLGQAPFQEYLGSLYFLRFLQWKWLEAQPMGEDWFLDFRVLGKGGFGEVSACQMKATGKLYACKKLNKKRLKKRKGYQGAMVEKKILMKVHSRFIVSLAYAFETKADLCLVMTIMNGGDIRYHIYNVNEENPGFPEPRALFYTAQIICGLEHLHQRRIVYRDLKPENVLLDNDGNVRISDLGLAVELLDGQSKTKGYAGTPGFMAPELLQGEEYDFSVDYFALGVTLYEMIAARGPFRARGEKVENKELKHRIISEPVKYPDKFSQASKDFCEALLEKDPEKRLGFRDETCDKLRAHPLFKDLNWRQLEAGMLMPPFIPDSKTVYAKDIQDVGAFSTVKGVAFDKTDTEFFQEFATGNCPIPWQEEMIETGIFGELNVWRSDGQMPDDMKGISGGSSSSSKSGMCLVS
As for the experimental part: as §1

The next test deals with T11, JNK2 (Homo sapiens, UniProt P45984).
T11 construct: purchased Nanosyn (enzymatic panel); SGC in-house recombinant human kinases (DSF panel); Invitrogen (ALK1-6)
The procedure:
as §1

The next test concerns the target T12, LOK (Homo sapiens, UniProt O94804).
T12 construct: purchased Nanosyn (enzymatic panel); SGC in-house recombinant human kinases (DSF panel); Invitrogen (ALK1-6)
The procedure: as §1

Another test deals with T13, OSR1 (Homo sapiens, UniProt O95747).
T13 construct: purchased Nanosyn (enzymatic panel); SGC in-house recombinant human kinases (DSF panel); Invitrogen (ALK1-6)
As for the experimental part: as §1

Another test has as its target T14, PTK7 (Homo sapiens, UniProt Q13308).
T14 construct: purchased Nanosyn (enzymatic panel); SGC in-house recombinant human kinases (DSF panel); Invitrogen (ALK1-6)
T14 sequence (Q13308 31-1070): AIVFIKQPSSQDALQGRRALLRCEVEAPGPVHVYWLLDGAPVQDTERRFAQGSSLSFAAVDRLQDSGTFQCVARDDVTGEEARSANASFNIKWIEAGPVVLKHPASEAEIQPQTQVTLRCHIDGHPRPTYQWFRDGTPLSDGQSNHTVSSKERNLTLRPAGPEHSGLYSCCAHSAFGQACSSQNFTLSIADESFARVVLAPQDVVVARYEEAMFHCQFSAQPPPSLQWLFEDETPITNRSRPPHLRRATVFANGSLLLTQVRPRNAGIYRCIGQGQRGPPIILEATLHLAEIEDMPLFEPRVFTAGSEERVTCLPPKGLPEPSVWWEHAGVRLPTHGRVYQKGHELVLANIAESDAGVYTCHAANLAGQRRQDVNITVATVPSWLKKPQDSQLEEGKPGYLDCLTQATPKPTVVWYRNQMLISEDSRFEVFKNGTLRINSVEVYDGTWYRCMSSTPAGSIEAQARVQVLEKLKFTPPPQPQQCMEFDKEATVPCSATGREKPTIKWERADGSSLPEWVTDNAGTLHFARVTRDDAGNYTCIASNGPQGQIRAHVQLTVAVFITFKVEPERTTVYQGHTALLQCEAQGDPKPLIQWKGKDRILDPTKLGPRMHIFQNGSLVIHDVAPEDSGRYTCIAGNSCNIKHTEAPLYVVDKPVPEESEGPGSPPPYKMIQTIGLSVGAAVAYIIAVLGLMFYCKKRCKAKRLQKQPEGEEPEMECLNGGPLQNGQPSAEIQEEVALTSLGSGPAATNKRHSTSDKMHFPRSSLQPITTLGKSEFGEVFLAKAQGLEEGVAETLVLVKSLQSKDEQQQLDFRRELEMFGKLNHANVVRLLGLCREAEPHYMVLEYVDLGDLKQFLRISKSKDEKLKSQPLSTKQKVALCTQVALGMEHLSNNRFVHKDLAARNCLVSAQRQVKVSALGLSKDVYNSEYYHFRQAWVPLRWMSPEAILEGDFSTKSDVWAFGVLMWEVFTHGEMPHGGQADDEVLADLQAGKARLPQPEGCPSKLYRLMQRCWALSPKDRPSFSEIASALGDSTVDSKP
The procedure:
as §1

The target in another test is T15, RSK1 (Homo sapiens, UniProt Q15418).
T15 construct: purchased Nanosyn (enzymatic panel); SGC in-house recombinant human kinases (DSF panel); Invitrogen (ALK1-6)
The procedure:
as §1

In another test the target is T16, VRK2 (Homo sapiens, UniProt Q86Y07).
T16 construct: purchased Nanosyn (enzymatic panel); SGC in-house recombinant human kinases (DSF panel); Invitrogen (ALK1-6)
The procedure:
as §1

T5 sequence (P49760 whole entry): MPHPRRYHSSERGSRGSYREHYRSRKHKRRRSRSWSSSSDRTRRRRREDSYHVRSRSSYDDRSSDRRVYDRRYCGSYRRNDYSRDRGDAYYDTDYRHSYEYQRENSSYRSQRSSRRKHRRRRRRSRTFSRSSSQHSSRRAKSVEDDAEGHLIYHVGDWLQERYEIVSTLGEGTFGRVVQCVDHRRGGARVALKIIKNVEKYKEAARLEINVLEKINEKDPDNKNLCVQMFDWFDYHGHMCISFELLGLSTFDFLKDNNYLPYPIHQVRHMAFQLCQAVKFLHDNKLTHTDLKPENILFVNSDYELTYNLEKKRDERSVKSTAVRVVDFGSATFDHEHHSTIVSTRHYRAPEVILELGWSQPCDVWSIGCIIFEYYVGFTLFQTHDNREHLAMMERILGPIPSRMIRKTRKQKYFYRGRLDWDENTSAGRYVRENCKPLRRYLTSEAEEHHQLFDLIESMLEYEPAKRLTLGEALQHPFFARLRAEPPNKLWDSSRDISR
T15 sequence (Q15418 whole entry): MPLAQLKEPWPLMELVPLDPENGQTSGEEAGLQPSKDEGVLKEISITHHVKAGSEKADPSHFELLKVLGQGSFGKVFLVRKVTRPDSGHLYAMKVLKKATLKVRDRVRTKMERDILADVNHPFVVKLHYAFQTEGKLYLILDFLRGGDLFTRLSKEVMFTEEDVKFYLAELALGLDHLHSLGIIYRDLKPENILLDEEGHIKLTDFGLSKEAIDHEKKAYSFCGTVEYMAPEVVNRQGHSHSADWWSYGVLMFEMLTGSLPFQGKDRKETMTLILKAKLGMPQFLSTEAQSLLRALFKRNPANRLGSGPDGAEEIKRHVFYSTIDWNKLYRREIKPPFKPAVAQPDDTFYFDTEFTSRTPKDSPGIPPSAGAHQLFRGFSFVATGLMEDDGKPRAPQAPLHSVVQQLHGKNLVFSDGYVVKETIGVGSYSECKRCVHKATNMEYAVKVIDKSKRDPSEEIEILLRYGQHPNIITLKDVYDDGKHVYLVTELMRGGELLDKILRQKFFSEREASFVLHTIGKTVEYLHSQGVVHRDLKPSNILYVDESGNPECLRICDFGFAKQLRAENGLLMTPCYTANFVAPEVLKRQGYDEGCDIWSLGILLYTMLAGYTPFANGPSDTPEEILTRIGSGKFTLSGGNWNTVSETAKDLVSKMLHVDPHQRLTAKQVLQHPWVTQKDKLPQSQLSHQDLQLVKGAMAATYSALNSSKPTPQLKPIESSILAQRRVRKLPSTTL
T1 sequence (P54646 whole entry): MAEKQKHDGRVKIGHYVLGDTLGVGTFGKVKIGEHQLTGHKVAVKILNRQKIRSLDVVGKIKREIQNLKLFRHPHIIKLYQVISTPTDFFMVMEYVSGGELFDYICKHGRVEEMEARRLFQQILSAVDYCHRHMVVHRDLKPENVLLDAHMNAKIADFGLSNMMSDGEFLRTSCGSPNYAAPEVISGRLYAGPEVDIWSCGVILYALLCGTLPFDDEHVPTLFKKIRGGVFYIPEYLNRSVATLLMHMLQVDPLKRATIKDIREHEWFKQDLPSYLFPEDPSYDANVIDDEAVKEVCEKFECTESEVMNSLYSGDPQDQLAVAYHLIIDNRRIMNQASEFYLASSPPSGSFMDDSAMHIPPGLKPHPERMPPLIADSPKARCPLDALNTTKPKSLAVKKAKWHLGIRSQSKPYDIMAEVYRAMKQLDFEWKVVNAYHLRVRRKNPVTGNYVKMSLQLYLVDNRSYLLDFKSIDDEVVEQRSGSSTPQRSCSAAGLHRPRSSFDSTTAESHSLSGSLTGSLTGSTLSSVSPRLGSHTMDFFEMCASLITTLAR
T7 sequence (Q9HAZ1 whole entry): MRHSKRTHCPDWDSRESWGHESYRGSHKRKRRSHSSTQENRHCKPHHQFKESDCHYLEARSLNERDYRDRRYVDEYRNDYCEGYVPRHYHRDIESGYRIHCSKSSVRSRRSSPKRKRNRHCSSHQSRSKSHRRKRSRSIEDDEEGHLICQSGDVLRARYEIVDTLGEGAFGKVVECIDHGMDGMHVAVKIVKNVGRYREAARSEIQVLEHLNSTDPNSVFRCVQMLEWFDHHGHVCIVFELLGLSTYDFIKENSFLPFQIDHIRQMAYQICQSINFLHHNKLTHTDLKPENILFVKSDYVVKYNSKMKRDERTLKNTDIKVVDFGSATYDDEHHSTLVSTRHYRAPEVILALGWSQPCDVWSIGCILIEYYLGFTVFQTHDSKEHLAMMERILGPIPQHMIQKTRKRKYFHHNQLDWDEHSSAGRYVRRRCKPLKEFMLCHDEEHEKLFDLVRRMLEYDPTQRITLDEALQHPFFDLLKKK
T16 sequence (Q86Y07 whole entry): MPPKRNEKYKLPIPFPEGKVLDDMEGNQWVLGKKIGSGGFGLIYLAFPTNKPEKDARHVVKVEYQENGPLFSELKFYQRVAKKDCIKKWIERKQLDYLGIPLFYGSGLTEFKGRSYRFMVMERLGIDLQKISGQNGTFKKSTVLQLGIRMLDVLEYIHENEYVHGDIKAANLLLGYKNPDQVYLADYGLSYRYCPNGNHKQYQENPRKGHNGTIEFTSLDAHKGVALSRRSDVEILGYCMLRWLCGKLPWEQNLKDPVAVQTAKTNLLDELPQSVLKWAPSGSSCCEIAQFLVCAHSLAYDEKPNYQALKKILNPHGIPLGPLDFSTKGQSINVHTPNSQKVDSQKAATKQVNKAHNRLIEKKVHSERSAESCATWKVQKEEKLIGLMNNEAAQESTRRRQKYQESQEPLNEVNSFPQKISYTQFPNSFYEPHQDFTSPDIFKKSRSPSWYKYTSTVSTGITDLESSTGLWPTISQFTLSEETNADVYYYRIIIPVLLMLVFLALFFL
T11 sequence (P45984 whole entry): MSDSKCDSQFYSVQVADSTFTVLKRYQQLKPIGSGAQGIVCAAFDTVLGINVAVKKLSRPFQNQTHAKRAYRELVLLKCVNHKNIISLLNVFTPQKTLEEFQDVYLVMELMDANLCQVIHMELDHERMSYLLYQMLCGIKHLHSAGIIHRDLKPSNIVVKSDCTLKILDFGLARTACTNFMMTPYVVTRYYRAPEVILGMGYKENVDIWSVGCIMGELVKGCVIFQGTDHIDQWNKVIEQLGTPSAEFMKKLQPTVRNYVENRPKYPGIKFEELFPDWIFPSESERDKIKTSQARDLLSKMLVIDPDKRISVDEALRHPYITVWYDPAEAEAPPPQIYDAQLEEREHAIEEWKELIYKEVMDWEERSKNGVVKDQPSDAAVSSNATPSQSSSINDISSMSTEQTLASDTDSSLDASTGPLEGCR
T3 sequence (O96017 whole entry): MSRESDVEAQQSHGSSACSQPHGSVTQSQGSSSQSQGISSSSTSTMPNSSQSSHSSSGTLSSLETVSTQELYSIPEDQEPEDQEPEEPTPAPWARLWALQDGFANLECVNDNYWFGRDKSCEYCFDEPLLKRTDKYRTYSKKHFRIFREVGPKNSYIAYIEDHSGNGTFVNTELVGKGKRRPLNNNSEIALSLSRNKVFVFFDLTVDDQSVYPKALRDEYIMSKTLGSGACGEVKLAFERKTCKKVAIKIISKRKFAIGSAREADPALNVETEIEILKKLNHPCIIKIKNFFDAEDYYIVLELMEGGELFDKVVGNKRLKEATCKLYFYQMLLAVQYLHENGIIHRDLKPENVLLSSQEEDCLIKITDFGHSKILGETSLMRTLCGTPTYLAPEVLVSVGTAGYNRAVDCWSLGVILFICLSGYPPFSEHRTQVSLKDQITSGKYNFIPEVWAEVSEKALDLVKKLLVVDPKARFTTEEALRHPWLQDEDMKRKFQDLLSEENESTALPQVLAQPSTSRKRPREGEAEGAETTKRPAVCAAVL
T4 sequence (Q9HCP0 whole entry): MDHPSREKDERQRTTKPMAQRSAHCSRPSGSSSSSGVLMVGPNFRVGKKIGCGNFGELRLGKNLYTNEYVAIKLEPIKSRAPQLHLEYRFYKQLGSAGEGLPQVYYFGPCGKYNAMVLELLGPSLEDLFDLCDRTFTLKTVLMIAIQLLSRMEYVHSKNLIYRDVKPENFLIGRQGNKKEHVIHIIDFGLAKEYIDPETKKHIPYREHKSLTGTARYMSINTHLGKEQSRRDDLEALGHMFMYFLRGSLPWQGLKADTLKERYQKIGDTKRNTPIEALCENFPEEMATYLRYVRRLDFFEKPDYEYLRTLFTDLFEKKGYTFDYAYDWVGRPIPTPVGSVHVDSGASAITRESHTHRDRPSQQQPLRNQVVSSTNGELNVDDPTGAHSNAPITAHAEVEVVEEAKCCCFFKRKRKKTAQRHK
T9 sequence (P07332 whole entry): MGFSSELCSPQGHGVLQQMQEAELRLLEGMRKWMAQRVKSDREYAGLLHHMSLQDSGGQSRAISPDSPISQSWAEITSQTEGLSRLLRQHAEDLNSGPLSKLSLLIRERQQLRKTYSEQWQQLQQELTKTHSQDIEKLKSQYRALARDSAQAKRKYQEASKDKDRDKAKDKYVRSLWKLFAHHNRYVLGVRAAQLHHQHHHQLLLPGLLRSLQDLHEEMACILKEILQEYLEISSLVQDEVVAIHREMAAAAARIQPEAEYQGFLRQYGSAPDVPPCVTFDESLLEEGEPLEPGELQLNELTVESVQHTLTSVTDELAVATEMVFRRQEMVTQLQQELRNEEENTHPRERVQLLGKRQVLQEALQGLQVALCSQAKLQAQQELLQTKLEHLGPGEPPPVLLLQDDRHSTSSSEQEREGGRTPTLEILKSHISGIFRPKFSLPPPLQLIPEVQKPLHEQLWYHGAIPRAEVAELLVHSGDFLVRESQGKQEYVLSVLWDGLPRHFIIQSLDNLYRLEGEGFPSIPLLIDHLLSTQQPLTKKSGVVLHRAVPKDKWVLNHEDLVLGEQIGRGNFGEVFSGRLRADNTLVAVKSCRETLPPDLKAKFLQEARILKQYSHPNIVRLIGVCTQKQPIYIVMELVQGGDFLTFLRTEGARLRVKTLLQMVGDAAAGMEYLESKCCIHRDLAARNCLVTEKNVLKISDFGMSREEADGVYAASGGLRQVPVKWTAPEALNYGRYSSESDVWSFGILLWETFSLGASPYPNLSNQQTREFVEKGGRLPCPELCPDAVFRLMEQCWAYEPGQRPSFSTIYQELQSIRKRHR

On to `COc1cc(-c2cc(-c3cccc(O)c3)cnc2N)cc(OC)c1OC` [K02288, 3-[6-amino-5-(3,4,5-trimethoxy-phenyl)-pyridin-3-yl]-phenol], for which the ΔTm at 10 µM on AMPKα2 turned out to be 1.2 °C; on CDK2 it was 0.1 °C; on CHEK2, 0 °C; on CK1γ1, 0.7 °C; on CLK2 it was 0 °C; on CLK3, 0 °C. Further, the ΔTm at 10 µM on CLK4 was 0.3 °C; at ERK1, 0.2 °C; at FES it was 0.4 °C; on GRK1, 0 °C; at JNK2, -0.1 °C; at LOK, 2.1 °C. Also, the ΔTm at 10 µM at OSR1 is 0 °C; on PTK7, -1.3 °C; at RSK1, 1.1 °C; on VRK2, 0.6 °C.
For the compound `c1cc(-c2cnn3cc(-c4ccc(OCCN5CCCCC5)cc4)cnc23)ccn1` [Dorsomorphin], the ΔTm at 10 µM turned out to be 7.1 °C at AMPKα2; 2.5 °C at CDK2; 1.7 °C at CHEK2; 0.4 °C on CK1γ1; 5 °C at CLK2; 3.7 °C on CLK3. The ΔTm at 10 µM on CLK4 was 8.7 °C; at ERK1, 0 °C; on FES, 0.5 °C; on GRK1 it was 0.4 °C; at JNK2, 0.4 °C; on LOK, 2.5 °C. Also, the ΔTm at 10 µM on OSR1 is 1.6 °C; at PTK7 it was -1.2 °C; at RSK1 it was 2.8 °C; at VRK2, 0.2 °C.
With `c1ccc2c(-c3cnn4cc(-c5ccc(N6CCNCC6)cc5)cnc34)ccnc2c1` [LDN-193189], the ΔTm at 10 µM on AMPKα2 stood at 8.3 °C; at CDK2, 0.7 °C; on CHEK2, 1.4 °C; on CK1γ1 it was 0.3 °C; on CLK2, 3.3 °C; at CLK3 it was 0.7 °C. The ΔTm at 10 µM at CLK4 is 5.3 °C; at ERK1 it was 0.2 °C; on FES, 0.4 °C; at GRK1, -0.7 °C; at JNK2, -0.6 °C; on LOK it was 3.1 °C. Moreover, the ΔTm at 10 µM on OSR1 is 0.9 °C; at PTK7, -0.3 °C; at RSK1 it was 3.3 °C; at VRK2, -0.2 °C.
